Reference: US20240376484A1, “TRANSFORMING CANNABACEAE CELLS” (Cibus US LLC, priority 2021, published 2024)

Key:
cannabis EAs [1] = experiment: Regeneration of non-transformed cannabis EAs on different SIMs, number of meristems per explant; type: cell-based; details: added to SIM with TDZ
Description: Various experiments were directed to testing different culture media and different concentrations of components of the culture media, such as SIMs with different TDZ concentrations. […] Some experiments were directed to testing different SIMs on cannabis EAs and with different light conditions. For example, the seeds were sterilized and imbibed, and the EAs were extracted. In some experiments, the EAs were not transformed, and between 40 and 50 EAs were regenerated on each different SIMs. In further experiments, a subset of the EAs were plated on an SIM without plant growth regulators, such as TDZ, and the remaining EAs were plated on an SIM with 10 mg/L TDZ, with different groups of each subset being exposed to different light conditions.
The images 1680, 1681, 1683, 1684 show resulting explants regenerated in SIM with 1 mg/L TDZ, 2.5 mg/L TDZ, 5 mg/L TDZ, and 10 mg/L TDZ, respectively.
FIG. 16B is a graph illustrating the explants regenerated in the different SIMs as previously described by FIG. 16A and the number of resulting meristems.
In some experiments, additional TDZ concentrations were tested and different combinations of components in the SIM were tested.

cannabis EAs [2] = experiment: Regeneration of cannabis EAs on SIM with 10 mg/L TDZ under different light conditions; type: cell-based; details: for explants with 3+ meristems: 10 mg/L TDZ
Description: Various experiments were directed to testing different culture media and different concentrations of components of the culture media, such as SIMs with different TDZ concentrations. […] Based on various experiments, it is believed that cannabis plants have strong apical dominance, and breaking the apical dominance will increase transformation efficiency and result in more transgenic events. […] Some experiments were directed to testing different SIMs on cannabis EAs and with different light conditions. For example, the seeds were sterilized and imbibed, and the EAs were extracted. In some experiments, the EAs were not transformed, and between 40 and 50 EAs were regenerated on each different SIMs. In further experiments, a subset of the EAs were plated on an SIM without plant growth regulators, such as TDZ, and the remaining EAs were plated on an SIM with 10 mg/L TDZ, with different groups of each subset being exposed to different light conditions. Tables 2 and 3 summarize example media and light conditions:
The B, G, R values in Table 3 include blue, green, and red light values, along with the intensity of the light.
FIGS. 16F and 16G are graphs illustrating the results of the different light conditions on the number of meristems per explant in cultures without plant growth regulators (FIG. 16F) and with 10 mg/L TDZ (FIG. 16G). […] For example, around half of the 10 mg/L TDZ had multiple meristems, with the light II conditions resulting in 40% explants with 3+ meristems, […] explants with 3+ meristems, and light I conditions resulting in 12% explants with 3+ meristems.

Row | Compound | impact of SIM additive on regeneration (cannabis EAs [1]) | share of explants with multiple meristems (cannabis EAs [2]; 10 mg/L TDZ in SIM, FIG. 16G) | explants with 3+ meristems (cannabis EAs [2]; light I conditions) [%] | explants with 3+ meristems (cannabis EAs [2]; light II conditions) [%] | explants with 3+ meristems (cannabis EAs [2]; light II conditions (printed a second time)) [%]
1 | O=C(O)Cc1c[nH]c2ccccc12 [IAA, indoleacetic acid] | did not have a significant positive impact | – | – | – | –
2 | O=C(Nc1ccccc1)Nc1cnns1 [TDZ, thidiazuron] | – | around half | 12 | 40 | 24
3 | Adenine Hemisulfate | did not have a significant positive impact | – | – | – | –
